Measurements taken from patent US20080318943A1, “Compounds and Uses Thereof - 848” (ASTRAZENECA AB, priority 2007, published 2008).

Assays:
[1] = molecular target: T1, GABAA2 receptors (α2, β3, γ2 receptor subunits transfected into Sf9 cells) (Homo sapiens, UniProt P18507+P47869); assay: GABAA2 Binding Method ([3H]-Flunitrazepam displacement); conditions: [3H]-Flunitrazepam ~2 nM, α2β3γ2 Sf9 membranes, 1 hr at 4° C.
T1 construct: host or cells: Sf9 cells (membranes)
Description: In some embodiments, the binding test is directed to a subtype of GABAA receptors, such as GABAA1 receptors (i.e., those containing the α1 subunit), GABAA2 receptors (i.e., those containing the α2 subunit), GABAA3 receptors (i.e., those containing the α3 subunit) and GABAA5 receptors (i.e., those containing the α5 subunit).
[^3H]-Flunitrazepam (Cat #NET567): Prepare 10× stock=20 nM, [F} in assay=˜2 nM
1. […] Add 5 ul of 30 uM flumazenil to wells 12 D-E for 50% control wells.
5. Add 25 μl [^3H]-Flunitrazepam (Automation Program 6). Incubate for 1 hr at 4° C.
6. Collect membranes on a cell harvester onto GF/B filter plates (pre-wet with dH2O and wash 5×400 μl/well, with cold assay buffer. (First 3 washes are considered hot; last two are cold.)
Data is analyzed by calculating percent of control, IC50, and Ki in an XLfit template. The following formula is used in the templates: […]

[2] = molecular target: T2, GABAA receptor α1β2γ2 (Homo sapiens, UniProt P14867+P18507); assay: Two-electrode voltage-clamp potentiation of GABA EC10 current in Xenopus oocytes, GABAA1; format: cell-based; conditions: percentage potentiation of GABA EC10 current divided by that of diazepam
T2 construct: expressed in transfected cells; host or cells: Xenopus laevis oocytes injected with cRNA
Description: GABAA receptors were heterologously expressed in Xenopus oocytes by injecting cRNA corresponding to human α1, α2, α3, α5, β2, P3 and γ2 subunits of the GABAA receptor genes. The specific subunit combinations (subtypes) were as follows: α1β2γ2, α2β3γ2, α3β3γ2, and α5β3γ2. The EC10 of GABA is approximated for each cell. Stability of GABA-mediated (EC10) current is established. Modulatory effect of test compound is determined and compared across subtypes. […] Thus, the assay can characterize modulatory effects and determine subtype selectivity of test compounds on major subtypes of GABAA receptors.
Xenopus laevis frogs (Xenopus I, Kalamazoo, Mich.) were anesthetized using 0.15% tricaine. Surgically removed ovarian lobes were teased out in OR2 solution (82 NaCl, 2.5 KCl, 5 HEPES, 1.5 NaH2PO4, 1 MgCl2, 0.1 EDTA, in mM, pH 7.4). The oocytes were defolliculated by incubation in 25 mL OR2 containing 0.2% collagenase 1A (SIGMA) two times for about 60 minutes on a platform shaker and stored in Leibovitz's L-15 medium. Oocytes were injected the following day in 0.5× Leibovitz's L-15 medium containing […] gentamycin, 10 units/ml penicillin, and […] streptomycin.
Capped cRNAs from the linearized vectors containing human α1, β2 and γ2 subunits of the GABAA receptor genes were mixed in ratio of […]. Oocytes were injected with 25-50 nL of mixed RNA with an appx molar ratio for α1, β2, and γ2 as 1:1:10. Oocyte recordings were done 2-10 days after injection. The same methods apply to subtypes derived from α2β3γ2, α3β3γ2, and α5β3γ2, except for 1:1:1 ratio was used for α, β, and γ subunits.
All measurements were done in a medium containing ND-96 (96 NaCl, 2 KCl, 1.8 CaCl2.2H2O, 1 MgCl2.6H2O, 5 HEPES, in mM, pH 7.5). Two-electrode voltage-clamp recording was carried out using OpusXpress amplifier (Axon Instruments, Foster City, Calif.), which allows simultaneous recording from 8 oocytes. Oocytes were impaled with two electrodes of 1-2 MΩ tip resistance when filled with 3M KCl. Recordings were begun when membrane potential became stable at potentials negative to −50-−60 mV. Membrane potential was held at −60 mV. […] The concentration of GABA corresponded to the EC10 value calculated for each oocyte. The modulator pulses started 30 s before the GABA pulse so as to allow preincubation with the modulator. A set of 3 pulses with just GABA without modulator was given prior to the modulator-containing pulses to define the baseline GABA response. Two oocytes per each experiment were dedicated to observe the effect of diazepam on GABA response to ensure the presence of γ2 subunit in the GABAA pentameric complex, which imparts diazepam sensitivity to the complex.
Current amplitude (i) was measured from baseline to peak using Clampfit (Axon Inst., Foster City, Calif.). Potentiation was calculated as percent change from the baseline GABA current flux 100×(imod/icontrol)−1) where imod=current mediated by modulator+GABA and icontrol=current mediated by GABA alone. […] Similarly, a value of −50% potentiation means the presence of modulator caused a 50% decrease in the control current. Various other data shown here were fitted and plotted using GraphPad Prism (GraphPad Software, Inc. San Diego, Calif.). The percentage potentiation was converted to relative potentiation by dividing it with percentage potentiation value obtained from the same assay with diazepam as a control.

T1 sequence (P47869 29-451): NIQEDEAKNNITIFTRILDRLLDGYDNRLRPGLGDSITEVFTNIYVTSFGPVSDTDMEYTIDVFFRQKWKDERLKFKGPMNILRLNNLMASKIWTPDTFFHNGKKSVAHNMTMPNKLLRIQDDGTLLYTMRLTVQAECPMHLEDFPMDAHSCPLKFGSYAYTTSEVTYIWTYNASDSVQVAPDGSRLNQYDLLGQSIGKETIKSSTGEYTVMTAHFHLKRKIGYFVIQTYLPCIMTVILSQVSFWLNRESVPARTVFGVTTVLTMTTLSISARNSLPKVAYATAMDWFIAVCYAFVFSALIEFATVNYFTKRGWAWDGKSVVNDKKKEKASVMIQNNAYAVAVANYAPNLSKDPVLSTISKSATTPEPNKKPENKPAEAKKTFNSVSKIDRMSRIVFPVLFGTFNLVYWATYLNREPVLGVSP
T1 sequence (P28472 26-473 partner): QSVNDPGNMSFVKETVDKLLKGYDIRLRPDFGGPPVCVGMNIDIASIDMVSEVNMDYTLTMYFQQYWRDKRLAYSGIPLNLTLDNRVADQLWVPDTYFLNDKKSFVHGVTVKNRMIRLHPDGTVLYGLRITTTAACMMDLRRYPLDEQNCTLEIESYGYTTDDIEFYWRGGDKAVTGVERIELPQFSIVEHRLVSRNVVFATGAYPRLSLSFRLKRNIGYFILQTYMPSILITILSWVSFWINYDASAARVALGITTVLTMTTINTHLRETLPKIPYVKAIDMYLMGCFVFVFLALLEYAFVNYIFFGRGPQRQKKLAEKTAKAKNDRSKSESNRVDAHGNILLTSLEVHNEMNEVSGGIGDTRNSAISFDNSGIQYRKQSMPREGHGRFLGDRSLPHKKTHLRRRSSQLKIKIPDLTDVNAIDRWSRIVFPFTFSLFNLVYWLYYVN
T1 sequence (P18507 40-475): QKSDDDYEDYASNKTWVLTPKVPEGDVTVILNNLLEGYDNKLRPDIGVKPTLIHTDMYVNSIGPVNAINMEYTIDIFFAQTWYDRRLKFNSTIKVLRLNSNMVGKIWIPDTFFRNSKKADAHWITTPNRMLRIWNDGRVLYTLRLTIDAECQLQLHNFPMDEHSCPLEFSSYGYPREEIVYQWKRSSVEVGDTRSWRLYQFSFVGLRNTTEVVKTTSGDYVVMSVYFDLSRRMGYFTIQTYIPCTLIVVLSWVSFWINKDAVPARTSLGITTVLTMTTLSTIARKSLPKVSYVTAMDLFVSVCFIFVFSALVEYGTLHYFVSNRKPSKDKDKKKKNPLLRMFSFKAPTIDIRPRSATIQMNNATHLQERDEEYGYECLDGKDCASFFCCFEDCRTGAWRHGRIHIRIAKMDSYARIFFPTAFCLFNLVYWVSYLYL
T2 sequence (P14867 28-456): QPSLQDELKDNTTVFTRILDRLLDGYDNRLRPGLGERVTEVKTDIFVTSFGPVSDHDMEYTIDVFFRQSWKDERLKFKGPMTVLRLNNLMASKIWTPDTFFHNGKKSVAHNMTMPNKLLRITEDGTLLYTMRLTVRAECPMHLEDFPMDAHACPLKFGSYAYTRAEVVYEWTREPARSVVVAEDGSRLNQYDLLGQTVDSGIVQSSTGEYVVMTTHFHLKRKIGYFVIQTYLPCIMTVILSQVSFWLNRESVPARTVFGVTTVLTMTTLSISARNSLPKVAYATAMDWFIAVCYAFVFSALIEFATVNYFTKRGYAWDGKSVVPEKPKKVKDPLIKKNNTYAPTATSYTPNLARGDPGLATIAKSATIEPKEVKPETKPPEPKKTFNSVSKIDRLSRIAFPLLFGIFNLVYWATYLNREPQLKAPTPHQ
T2 sequence (P47870 25-512 partner limits assumed): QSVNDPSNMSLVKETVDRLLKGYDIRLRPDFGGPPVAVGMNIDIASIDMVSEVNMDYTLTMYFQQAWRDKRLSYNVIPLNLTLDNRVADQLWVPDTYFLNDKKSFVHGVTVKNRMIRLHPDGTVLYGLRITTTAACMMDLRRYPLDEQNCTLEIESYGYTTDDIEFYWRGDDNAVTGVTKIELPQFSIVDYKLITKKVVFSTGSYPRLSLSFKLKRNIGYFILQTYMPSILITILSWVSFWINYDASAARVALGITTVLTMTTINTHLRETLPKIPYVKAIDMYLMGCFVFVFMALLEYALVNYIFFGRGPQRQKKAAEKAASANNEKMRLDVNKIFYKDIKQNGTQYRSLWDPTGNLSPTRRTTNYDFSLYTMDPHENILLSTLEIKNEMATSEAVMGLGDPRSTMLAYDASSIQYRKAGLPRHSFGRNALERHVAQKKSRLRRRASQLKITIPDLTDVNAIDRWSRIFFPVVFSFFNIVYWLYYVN
T2 sequence (P18507 40-475): as the sequence (P18507 40-475) above

SMILES | Ki [1] [nM] | Relative Potentiation for GABAA1 [2]
COc1ccncc1-c1cccc2c(N)c3c(nc12)CN(Cc1ccc2c(c1)OCO2)C3=O [9-amino-2-(benzo[d][1,3]dioxol-5-ylmethyl)-5-(4-methoxypyridin-3-yl)-2,3-dihydro-1H-pyrrolo[3,4-b]quinolin-1-one] | 2.19 | 0.28
CCCCN1Cc2nc3c(-c4c(F)cccc4OC)cccc3c(N)c2C1=O [9-amino-2-butyl-5-(2-fluoro-6-methoxyphenyl)-2,3-dihydro-1H-pyrrolo[3,4-b]quinolin-1-one] | 4.62 | 0.25
CCCCN1Cc2nc3c(-c4cc(C)ccc4OC)cccc3c(N)c2C1=O [9-amino-2-butyl-5-(2-methoxy-5-methylphenyl)-2,3-dihydro-1H-pyrrolo[3,4-b]quinolin-1-one] | 21.3 | 0.56
CCCCN1Cc2nc3c(-c4cccnc4OC)cccc3c(N)c2C1=O [9-amino-2-butyl-5-(2-methoxypyridin-3-yl)-2,3-dihydro-1H-pyrrolo[3,4-b]quinolin-1-one] | 19.7 | 0.5
Nc1c2c(nc3c(-c4cc(Cl)ccc4Cl)cccc13)CN(C1CCC1)C2=O [9-amino-2-cyclobutyl-5-(2,5-dichlorophenyl)-2,3-dihydro-1H-pyrrolo[3,4-b]quinolin-1-one] | 3.15 | 0.16
COc1ccc(C)cc1-c1cccc2c(N)c3c(nc12)CN(C1CCC1)C3=O [9-amino-2-cyclobutyl-5-(2-methoxy-5-methylphenyl)-2,3-dihydro-1H-pyrrolo[3,4-b]quinolin-1-one] | 4.07 | 0.19
Nc1c2c(nc3c(-c4ccccc4C(F)(F)F)cccc13)CN(C1CC1)C2=O [9-amino-2-cyclopropyl-5-(2-(trifluoromethyl)phenyl)-2,3-dihydro-1H-pyrrolo[3,4-b]quinolin-1-one] | 22.7 | 0.48
COc1ccc(C)cc1-c1cccc2c(N)c3c(nc12)CN(C1CC1)C3=O [9-amino-2-cyclopropyl-5-(2-methoxy-5-methylphenyl)-2,3-dihydro-1H-pyrrolo[3,4-b]quinolin-1-one] | 4.76 | 0.28
COc1ccc(-c2cccc3c(N)c4c(nc23)CN(C2CC2)C4=O)c(C(F)(F)F)c1 [9-amino-2-cyclopropyl-5-(4-methoxy-2-(trifluoromethyl)phenyl)-2,3-dihydro-1H-pyrrolo[3,4-b]quinolin-1-one] | 31.9 | 0.5
COc1ccncc1-c1cccc2c(N)c3c(nc12)CN(C1CC1)C3=O [9-amino-2-cyclopropyl-5-(4-methoxypyridin-3-yl)-2,3-dihydro-1H-pyrrolo[3,4-b]quinolin-1-one] | 8.1 | 0.21
COc1ccc(C)cc1-c1c(F)ccc2c(N)c3c(nc12)CN(C1CC1)C3=O [9-amino-2-cyclopropyl-6-fluoro-5-(2-methoxy-5-methylphenyl)-2,3-dihydro-1H-pyrrolo[3,4-b]quinolin-1-one] | 7.65 | 0.23
CCN1Cc2nc3c(-c4cc(C)ccc4OC)cccc3c(N)c2C1=O [9-amino-2-ethyl-5-(2-methoxy-5-methylphenyl)-2,3-dihydro-1H-pyrrolo[3,4-b]quinolin-1-one] | 25.6 | 0.2
CCCN1Cc2nc3c(-c4ccc(OC)c(OC)c4OC)cccc3c(N)c2C1=O [9-amino-2-propyl-5-(2,3,4-trimethoxyphenyl)-2,3-dihydro-1H-pyrrolo[3,4-b]quinolin-1-one] | 49.8 | 0.55
CCCN1Cc2nc3c(-c4ccccc4C(F)(F)F)cccc3c(N)c2C1=O [9-amino-2-propyl-5-(2-(trifluoromethyl)phenyl)-2,3-dihydro-1H-pyrrolo[3,4-b]quinolin-1-one] | 16.6 | 0.48
CCCN1Cc2nc3c(-c4ccccc4C)cccc3c(N)c2C1=O [9-amino-2-propyl-5-(2-methylphenyl)-2,3-dihydro-1H-pyrrolo[3,4-b]quinolin-1-one] | 5.53 | 0.35
CCCN1Cc2nc3c(-c4cc(OC)c(OC)c(OC)c4)cccc3c(N)c2C1=O [9-amino-2-propyl-5-(3,4,5-trimethoxyphenyl)-2,3-dihydro-1H-pyrrolo[3,4-b]quinolin-1-one] | 89.8 | 0.96
CCCN1Cc2nc3c(-c4ccc(C)cc4)cccc3c(N)c2C1=O [9-amino-2-propyl-5-(4-methylphenyl)-2,3-dihydro-1H-pyrrolo[3,4-b]quinolin-1-one] | 80.7 | 0.37
CCCN1Cc2nc3c(-c4ccncc4)cccc3c(N)c2C1=O [9-amino-2-propyl-5-(pyridin-4-yl)-2,3-dihydro-1H-pyrrolo[3,4-b]quinolin-1-one] | 24.6 | 0.43
CCCN1Cc2nc3c(-c4ccc5ncccc5c4)cccc3c(N)c2C1=O [9-amino-2-propyl-5-(quinolin-6-yl)-2,3-dihydro-1H-pyrrolo[3,4-b]quinolin-1-one] | 19.5 | 0.29
CCCN1Cc2nc3c(-c4ccsc4)cccc3c(N)c2C1=O [9-amino-2-propyl-5-(thiophen-3-yl)-2,3-dihydro-1H-pyrrolo[3,4-b]quinolin-1-one] | 30.8 | 0.19
CCCN1Cc2nc3c(-c4ccc5[nH]ccc5c4)cccc3c(N)c2C1=O [9-amino-5-(1H-indol-5-yl)-2-propyl-2,3-dihydro-1H-pyrrolo[3,4-b]quinolin-1-one] | 26.8 | 0.55
CCCN1Cc2nc3c(-c4cccc(OC)c4OC)cccc3c(N)c2C1=O [9-amino-5-(2,3-dimethoxyphenyl)-2-propyl-2,3-dihydro-1H-pyrrolo[3,4-b]quinolin-1-one] | 24.5 | 0.3
CCCN1Cc2nc3c(-c4ccc(F)cc4F)cccc3c(N)c2C1=O [9-amino-5-(2,4-difluorophenyl)-2-propyl-2,3-dihydro-1H-pyrrolo[3,4-b]quinolin-1-one] | 14.9 | 0.39
COc1ccc(CN2Cc3nc4c(-c5ccc(OC)cc5OC)cccc4c(N)c3C2=O)cc1 [9-amino-5-(2,4-dimethoxyphenyl)-2-(4-methoxybenzyl)-2,3-dihydro-1H-pyrrolo[3,4-b]quinolin-1-one] | 32.1 | 0.25
CCCN1Cc2nc3c(-c4ccc(OC)cc4OC)c(F)ccc3c(N)c2C1=O [9-amino-5-(2,4-dimethoxyphenyl)-6-fluoro-2-propyl-2,3-dihydro-1H-pyrrolo[3,4-b]quinolin-1-one] | 13.9 | 0.39
